Values quoted from earlier work as cited in US20190045778A1, “EMULSIFIABLE CONCENTRATES” (priority 2016, published 2019).
Where two headings read alike, the source gives them in different places.

Row | Molecule | Water Solubility (at 25° C.) | Water Solubility (at 20° C.)
1 | thiamethoxam | 4.1 g/L at 25 °C | –
2 | CN/C(=N\[N+](=O)[O-])NCc1cnc(Cl)s1 [clothianidin] | – | 0.33 g/L at 20 °C
3 | N#C/N=C1/SCCN1Cc1ccc(Cl)nc1 [thiacloprid] | – | 0.1 g/L at 20 °C
